Ends that are not written are not given here.
Tests used:
Format in all cases: cell-based
dermal fibroblasts [1] = assay: Synthesis of intracellular ATP (ATP Bioluminescence Assay Kit HS II); settings: 1% solution of a 50 ppm solution of peptide, compared to the untreated cells
Protocol: The goal of this study is to determine the influence of the peptide SEQ ID no 2 on the synthesis of ATP.
This study was conducted using an “ATP Bioluminescence Assay Kit HS II” Kit (Roche Applied Science):
The dermal fibroblasts are treated with a 1% solution, a solution a 50 ppm, containing the peptide SEQ ID no 2, representative of the family of peptides according to the invention, for a period lasting from 1 to 3 hours. At the end of the incubation period, the wells are emptied of their medium and rinsed with 2 ml of cold PBS before adding 250 μl of a lysis buffer supplied by the kit. The cells of each well are then scrapped, then collected in 14 ml tubes. Each well is rinsed with 2×500 μl of cold PBS and everything is against collected the respective tubes. Beginning with these samples, a 1/12000th dilution is done in cold PBS before each reading. The dosage of ATP is done on these samples: 50 μL of this dilution is placed in a luma basin and 50 μl of luminol are added. After 10 seconds, the luminescence read is triggered. The values are standardized with respect to the quantity of proteins for each sample. The measures are done using an apparatus: the Biocounter M2010A LUMAC®/3M.

dermal fibroblasts [2] = assay: Protection against oxidative damage: carbonylation of proteins (EIA/ELISA with DNP); settings: for decrease in carbonylation: peptide 1% solution at 50 ppm, 72 hours before, during, 24 hours after stress
Source text: The goal of this study is to determine the protector effect of the peptide SEQ ID no 1 with respect to dermal fibroblasts subjected to oxidative stress caused by UV rays or hydrogen peroxide (H2O2). To evaluate the oxidative damage suffered by the cells, measurements of the carbonylation of the proteins was done.
The carbonylation of proteins is the result of the oxidative splitting of proteins or oxidation of the arginine residues, lysine, proline or threonine. The dosage of the carbonylation of proteins is done using an EIA (Enzyme Immuno Assay) technique.
Fibroblasts in culture were placed in the presence of the peptide SEQ ID no 1 in a 1% solution, at 50 ppm, 72 hours before, during, and also 24 hours after the oxidative stress (UVB irradiation of 50 mJ/cm^2 or treatment par 2 mM of H2O2). untreated controls not subjected to oxidative stress are done.
The degree of carbonylation consists in the use of DNP (dinitrophenyl) which has the property to se fixer specifically on these carbonyl groups of the proteins. The fixed DNP is then assayed using an ELISA method, thanks to an anti-DNP antibody linked to peroxydase. A range of BSA (bovine albumin serum) oxidized (with a known concentration of carbonyl groups) is used for calibration.

Biopsies of human skin = assay: Protection against stress induced by glycation, ex vivo skin culture, H&E histology; settings: methyl glyoxal at 5 or 10 mM; peptide 1% of a 50 ppm mother solution, 24 hours before and 24 hours after glycation agent
Protocol: The goal of this study is to determine the protective effective of the peptide SEQ ID no 1, with respect to ex vivo epidermal culture subjected to stress by a glycation agent.
Biopsies of human skin are maintained in ex vivo culture, treated with a 1% solution, a mother solution of 50 ppm of peptide SEQ ID no 1, 24 hours before, and also 24 hours after the introduction of a glycation agent (methyl glyoxal at 5 or 10 mM). Histology hematoxyline-eosine (H&E) staining makes it possible to evaluate the quality of skin structures.

Row | Substance | increase in the quantity of intracellular ATP (dermal fibroblasts [1]; after 1 hour of culture) [%] | increase in the quantity of intracellular ATP (dermal fibroblasts [1]; after 3 hours of culture) [%] | decrease in carbonylation (dermal fibroblasts [2]; UVB irradiation of 50 mJ/cm^2, compared to irradiated cells not treated) [%] | reduction in the carbonylation of proteins (dermal fibroblasts [2]; cells treated with peptide (1% solution, at 50 ppm), compared to the untreated cells) [%] | decrease in carbonylation (dermal fibroblasts [2]; oxidative stress by 2 mM of H2O2, compared to stressed cells not treated) [%] | evaluation of the skin structures (H&E staining) (Biopsies of human skin)
1 | AVLAGD [peptide SEQ ID No 2] | 17 | 67 | – | – | – | –
2 | Ala-Val-Leu-Ala-Gly-Asp-NH2 (AVLAGD-NH2) [peptide SEQ ID no 1] | – | – | 20 | 30 | 20 | net resistance to cellular stress induced by glycation

Source: US8440789B2, “Pharmaceutical and/or cosmetic composition containing an active antioxydant principle and cell energy activator” (Societe d'Extraction des Principes Actifs (Vincience), priority 2007, dated 2013)
